{
  "source": "paper PMC10957570",
  "about": "“Coniferyl ferulate alleviate xylene-caused hematopoietic stem and progenitor cell toxicity by Mgst2” (Frontiers in Pharmacology, 2024)",
  "target": "T1, Mgst2 (Mus musculus, UniProt A2RST1)",
  "T1 construct": "native protein in lysate of CD117+ bone marrow cells, captured on CF chip and identified by LC-MS/MS",
  "T1 sequence (A2RST1 whole entry)": "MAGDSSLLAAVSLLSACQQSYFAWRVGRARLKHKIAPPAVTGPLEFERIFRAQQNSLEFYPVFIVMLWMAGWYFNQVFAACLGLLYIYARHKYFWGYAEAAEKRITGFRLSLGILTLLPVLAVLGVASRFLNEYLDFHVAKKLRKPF",
  "assay": "SPR capture from cell lysate on CF chip, LC-MS/MS identification",
  "format": "biochemical",
  "settings": "CD117+ bone marrow cell lysate; CF immobilised; excess free CF lowered total SPR signal",
  "data": [
    {"molecule": "COc1cc(/C=C/COC(=O)/C=C/c2ccc(O)c(OC)c2)ccc1O", "note": "[Coniferyl ferulate]", "values": [
      {"measurement": "SPR capture from cell lysate on CF chip, LC-MS/MS identification", "result": "we found that Mgst2 was one of the targets of CF"}
    ]}
  ]
}
